Here are results for 30 molecules from patent publication US9469631B2 (Boehringer Ingelheim International GmbH, priority 2012, dated 2016).

As usually defined, the EC50 is the concentration giving half of the maximal effect.

Chain of human GPR119 (Q8TDV5 whole entry): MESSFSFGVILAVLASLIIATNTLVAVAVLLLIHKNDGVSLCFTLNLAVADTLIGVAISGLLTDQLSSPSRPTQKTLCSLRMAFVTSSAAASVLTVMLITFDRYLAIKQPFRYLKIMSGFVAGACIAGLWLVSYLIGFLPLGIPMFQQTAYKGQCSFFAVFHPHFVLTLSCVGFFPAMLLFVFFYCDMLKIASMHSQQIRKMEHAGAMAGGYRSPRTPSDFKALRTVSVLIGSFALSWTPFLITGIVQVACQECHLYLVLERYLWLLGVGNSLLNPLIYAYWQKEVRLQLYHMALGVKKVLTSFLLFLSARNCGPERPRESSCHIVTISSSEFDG

The target in the assay is human GPR119 (Homo sapiens (Human), UniProt Q8TDV5). The assay can be described thus: AlphaScreen cAMP assay in MIN6 cells stably transfected with human GPR119. The assay is classed as cell-based. The following applies: Min-6/hGPR119 cells, 45 min incubation at room temperature. As to the method:
The compounds of formula I according to the invention modulate the activity of the G-protein-coupled receptor GPR119. The effect of the compounds on the activation of GPR119 and on the stimulation of intracellular cAMP concentration is determined using the AlphaScreen cAMP Assay Kit (Cat. No. #6760625R) made by PerkinElmer.
MIN6 cells [Miyazaki J et al. Endocrinology. 1990 July; 127(1):126-32] are stably transfected with an expression vector for human GPR119 cDNA (Acc. No. NP_848566). Min-6/hGPR119 cells are cultured in DMEM, 10% FBS, 50 μM β-mercaptoethanol, 0.3 mg/mL Geniticin, 2 mM GlutaMAX at 37° C. 5% CO2. For the assay, the cells are seeded in Optiplates (white, 384-well, 160W-barcoded, TC, sterile with lid, Cat. No. #6007688 (Perkin Elmer); 10000 cells/well; 50 μl). The plates covered with lids are then incubated for 24 hours at 37° C./5% CO2. After the medium is aspirated from the wells completely, 10 μl of the test compound are added, the compounds are diluted using stimulating buffer (140 mM NaCl, 3.6 mM KCl, 0.5 mM NaH2PO4, 0.5 mM MgSO4, 1.5 mM CaCl2, 10 mM Hepes, 5 mM NaHCO3; pH 7.4. 0.5 mM IBMX and 0.1% BSA, the final DMSO concentration is 1%). After 45 minutes incubation at room temperature (approx. 20° C.), the cAMP concentrations are determined using the AlphaScreen cAMP Assay Kit (Cat. No. #6760625R from PerkinElmer).
(Bead proximity is the source of the signal in Alpha formats.)
Molecule `CC(C)(C)OC(=O)N1CCC(N(C(=O)c2ccc(-c3ccc(C#N)c(F)c3)cc2)C2CC2)CC1` [Example 106, 4-[(4′-Cyano-3′-fluoro-biphenyl-4-carbonyl)-cyclopropyl-amino]-piperidine-1-carboxylic acid tert-butyl ester] gave an EC50 of 78 nM.

As for `C[C@H]1CN(C(=O)OC(C)(C)C)CC[C@H]1N(C(=O)c1ccc(-c2cnco2)cc1)C1CC1` (single isomer, unassigned) [Example 47], the concentration giving a half-maximal response (EC50) came to 855 nM.

For `COc1ccc(-c2ccc(C(=O)N(C3CC3)C3CCN(C(=O)OC(C)(C)C)CC3)cc2)cn1` [Example 96, 4-{Cyclopropyl-[4-(6-methoxy-pyridin-3-yl)-benzoyl]-amino}-piperidine-1-carboxylic acid tert-butyl ester], the EC50 stood at 131 nM.

With `Cc1noc(C)c1-c1ccc(C(=O)N(C2CC2)C2CCN(C(=O)OC(C)(C)C)CC2)cc1` [Example 95, 4-{Cyclopropyl-[4-(3,5-dimethyl-isoxazol-4-yl)-benzoyl]-amino}-piperidine-1-carboxylic acid tert-butyl ester], a half-maximal effect (EC50) was put at 85 nM.

`CC(C)OC(=O)N1CCC(N(C(=O)c2ccc(-c3ccncc3C#N)cc2)C2CC2)CC1` [Example 31, 4-{[4-(3-Cyano-pyridin-4-yl)-benzoyl]-cyclopropyl-amino}-piperidine-1-carboxylic acid isopropyl ester] came in with a 50% effective concentration (EC50) of 49 nM.

`CC(C)(C)OC(=O)N1CCC(N(C(=O)c2ccc(-c3ccncc3C#N)c(F)c2)C2CC2)CC1` [Example 34, 4-{[4-(3-Cyano-pyridin-4-yl)-3-fluoro-benzoyl]-cyclopropyl-amino}-piperidine-1-carboxylic acid tert-butyl ester] yielded an EC50 of 21 nM.

Take `CC(C)OC(=O)N1CCC(N(C(=O)c2ccc(-c3ccc(C(N)=O)cc3)cc2)C2CC2)CC1` [Example 129, 4-[(4′-Carbamoyl-biphenyl-4-carbonyl)-cyclopropyl-amino]-piperidine-1-carboxylic acid isopropyl ester]: the EC50 came to 113 nM.

For the molecule `CC1CN(C(=O)OC(C)(C)C)CCC1N(C(=O)c1ccc(-c2cnco2)cc1)C1CC1` (stereo not drawn) [Example 2, 4-[Cyclopropyl-(4-oxazol-5-yl-benzoyl)-amino]-3-methyl-piperidine-1-carboxylic acid tert-butyl ester], the EC50 was 15 nM.

Molecule `CC(C)(C)OC(=O)N1CCC(N(C(=O)c2ccc(-c3cnco3)cc2)C2CC2)CC1` [Example 53, 4-[Cyclopropyl-(4-oxazol-5-yl-benzoyl)-amino]-piperidine-1-carboxylic acid tert-butyl ester] registered an EC50 of 33 nM.

Take `CC(C)(C)OC(=O)N1CCC(N(C(=O)c2ccc(-c3ccccc3C#N)cc2)C2CC2)CC1` [Example 94, 4-[(2′-Cyano-biphenyl-4-carbonyl)-cyclopropyl-amino]-piperidine-1-carboxylic acid tert-butyl ester]: a half-maximal response (EC50) required 317 nM.

`CC(C)(C)OC(=O)N1CCC(N(C(=O)c2ccc(-c3cncnc3)cc2)C2CC2)CC1` [Example 69, 4-[Cyclopropyl-(4-pyrimidin-5-yl-benzoyl)-amino]-piperidine-1-carboxylic acid tert-butyl ester] had a concentration for a half-maximal effect (EC50) of 158 nM.

As to `CC(=O)Nc1nc(-c2ccc(C(=O)N(C3CC3)C3CCN(C(=O)OC(C)(C)C)CC3)cc2)ns1` [Example 74, 4-{[4-(5-Acetylamino-[1,2,4]thiadiazol-3-yl)-benzoyl]-cyclopropyl-amino}-piperidine-1-carboxylic acid tert-butyl ester], the half-maximal effective concentration (EC50) was determined as 886 nM.

For the molecule `CC(C)(C)OC(=O)N1CCC(N(C(=O)c2ccc(-c3ccc(C#N)s3)cc2)C2CC2)CC1` [Example 89, 4-{[4-(5-Cyano-thiophen-2-yl)-benzoyl]-cyclopropyl-amino}-piperidine-1-carboxylic acid tert-butyl ester], a half-maximal response (EC50) required 24 nM.

Molecule `CC(C)(C)OC(=O)N1CC[C@H](N(C(=O)c2ccc(-c3cnco3)cc2)C2CC2)[C@@H](F)C1` (single isomer, unassigned) [Example 38] registered an EC50 of 174 nM.

With `CC(C)(C)OC(=O)N1CCC(N(C(=O)c2ccc(-n3ccnc3)cc2)C2CC2)CC1` [Example 52, 4-[Cyclopropyl-(4-imidazol-1-yl-benzoyl)-amino]-piperidine-1-carboxylic acid tert-butyl ester], the midpoint of the response, the EC50, lay at 832 nM.

In turn, `CC(C)(C)OC(=O)N1CCC(N(C(=O)c2ccc(-c3ccncc3C#N)cc2)C2CC2)CC1` [Example 29, 4-{[4-(3-Cyano-pyridin-4-yl)-benzoyl]-cyclopropyl-amino}-piperidine-1-carboxylic acid tert-butyl ester] returned an EC50 of 27 nM.

As for `CC(C)(C)OC(=O)N1CCC(N(C(=O)c2ccc(-c3ccc(NS(C)(=O)=O)cc3)cc2)C2CC2)CC1` [Example 92, 4-[Cyclopropyl-(4′-methanesulfonylamino-biphenyl-4-carbonyl)-amino]-piperidine-1-carboxylic acid tert-butyl ester], the half-maximal effective concentration (EC50) is 79 nM.

As for `Cc1nc(-c2ccc(C(=O)N(C3CC3)C3CCN(C(=O)OC(C)(C)C)CC3)cc2)co1` [Example 5, 4-{Cyclopropyl-[4-(2-methyl-oxazol-4-yl)-benzoyl]-amino}-piperidine-1-carboxylic acid tert-butyl ester], the response was half-maximal at 884 nM (EC50).

`CNC(=O)Nc1nnc(-c2ccc(C(=O)N(C3CC3)C3CCN(C(=O)OC(C)(C)C)CC3)cc2)s1` [Example 82, 4-(Cyclopropyl-{4-[5-(3-methyl-ureido)-[1,3,4]thiadiazol-2-yl]-benzoyl}-amino)-piperidine-1-carboxylic acid tert-butyl ester] returned a concentration giving a half-maximal response (EC50) of 402 nM.

The molecule `CC(C)(C)OC(=O)N1CCC(N(C(=O)c2ccc(-c3cncc(C#N)c3)cc2)C2CC2)CC1` [Example 113, 4-{[4-(5-Cyano-pyridin-3-yl)-benzoyl]-cyclopropyl-amino}-piperidine-1-carboxylic acid tert-butyl ester] displayed a half-maximal effective concentration (EC50) of 48 nM.

With `CNC(=O)Nc1nc(-c2ccc(C(=O)N(C3CC3)C3CCN(C(=O)OC(C)(C)C)CC3)cc2)ns1` [Example 73, 4-(Cyclopropyl-{4-[5-(3-methyl-ureido)-[1,2,4]thiadiazol-3-yl]-benzoyl}-amino)-piperidine-1-carboxylic acid tert-butyl ester], the EC50 was found to be 500 nM.

Molecule `CCOc1ccc(-c2ccc(C(=O)N(C3CC3)C3CCN(C(=O)OC(C)(C)C)CC3)cc2)cc1` [Example 87, 4-[Cyclopropyl-(4′-ethoxy-biphenyl-4-carbonyl)-amino]-piperidine-1-carboxylic acid tert-butyl ester] had an EC50 of 256 nM.

The molecule `CC(C)(C)OC(=O)N1CCC(N(C(=O)c2ccc(-c3ncon3)cc2)C2CC2)CC1` [Example 25, 4-[Cyclopropyl-(4-[1,2,4]oxadiazol-3-yl-benzoyl)-amino]-piperidine-1-carboxylic acid tert-butyl ester] yielded an EC50 of 238 nM.

In the case of `CC(C)COC(=O)N1CCC(N(C(=O)c2ccc(-c3cnco3)cc2)C2CC2)CC1` [Example 125, 4-[Cyclopropyl-(4-oxazol-5-yl-benzoyl)-amino]-piperidine-1-carboxylic acid isobutyl ester], the 50% effective concentration (EC50) is 45 nM.

As for `CC(C)(C)OC(=O)N1CCC(N(C(=O)c2ccc(-c3nnco3)cc2)C2CC2)CC1` [Example 62, 4-[Cyclopropyl-(4-[1,3,4]oxadiazol-2-yl-benzoyl)-amino]-piperidine-1-carboxylic acid tert-butyl ester], a half-maximal effect (EC50) was put at 650 nM.

As to `CC(C)(C)OC(=O)N1CCC(N(C(=O)c2ccc(-n3cncn3)cc2)C2CC2)CC1` [Example 63, 4-[Cyclopropyl-(4-[1,2,4]triazol-1-yl-benzoyl)-amino]-piperidine-1-carboxylic acid tert-butyl ester], the 50% effective concentration (EC50) was 127 nM.

On to `CC(C)(C)OC(=O)N1CC[C@@H](N(C(=O)c2ccc(-c3cnco3)cc2)C2CC2)[C@@H](F)C1` (single isomer, unassigned) [Example 41], for which the concentration giving a half-maximal response (EC50) was determined as 30 nM.

As for `CC(C)(C)OC(=O)N1CCC(N(C(=O)c2ccc(-c3cccs3)cc2)C2CC2)CC1` [Example 58, 4-[Cyclopropyl-(4-thiophen-2-yl-benzoyl)-amino]-piperidine-1-carboxylic acid tert-butyl ester], the midpoint of the response, the EC50, lay at 214 nM.

In turn, `CC(C)(C)OC(=O)N1CCC(N(C(=O)c2ccc(-c3ccc(CC#N)cc3)cc2)C2CC2)CC1` [Example 91, 4-[(4′-Cyanomethyl-biphenyl-4-carbonyl)-cyclopropyl-amino]-piperidine-1-carboxylic acid tert-butyl ester] yielded a 50% effective concentration (EC50) of 86 nM.

With `CCOC(=O)c1cnn(-c2ccc(C(=O)N(C3CC3)C3CCN(C(=O)OC(C)(C)C)CC3)cc2)c1C` [Example 78, 4-{Cyclopropyl-[4-(4-ethoxycarbonyl-5-methyl-pyrazol-1-yl)-benzoyl]-amino}-piperidine-1-carboxylic acid tert-butyl ester], a half-maximal response (EC50) required 75 nM.
